Patent US4948807A, “Phenyl carbamates” (priority 1985, dated 1990)
pIC50: −log10 of the molar value. Where two headings read alike, the source gives them in different places.

Assays:
[1] = system: brain acetylcholinesterase; settings: for Relative potency to physostigmine after oral administration / % cholinesterase inhibition 3 hours after s.c. administration / Relative potency to physostigmine after subcut. (s.c.) administration: mouse brain; for Relative potency to physostigmine after oral administration / Relative potency to physostigmine after subcut. (s.c.) administration: physostigmine = 100; for relative in vivo activity compared to physostigmine versus in vitro data: comparison of Table 1 with Table 2
Description: The effect of each compound on brain acetylcholinesterase in vivo was measured, after subcutaneous or oral administration to mice. Animals were sacrificed, at different times ranging from 0.25-8 hours after drug administration. The brain was rapidly removed, and the enzyme acetylcholinesterase extracted and solubilized with 0.1% Triton, and its ability to hydrolyse acetylthiocholine assessed as described above (in vitro experiments), in comparison with the enzyme removed from mice injected with normal saline.

[2] = molecular target: T1, acetylcholinesterase (Mus musculus, UniProt P21836); experiment: biochemical; format: biochemical
T1 construct: A solubilized preparation of acetylcholinesterase was prepared from mouse whole brain (minus cerebellum); from tissue; host or cells: mouse whole brain (minus cerebellum), membrane pellet solubilized with 1% Triton
T1 sequence (P21836 32-614): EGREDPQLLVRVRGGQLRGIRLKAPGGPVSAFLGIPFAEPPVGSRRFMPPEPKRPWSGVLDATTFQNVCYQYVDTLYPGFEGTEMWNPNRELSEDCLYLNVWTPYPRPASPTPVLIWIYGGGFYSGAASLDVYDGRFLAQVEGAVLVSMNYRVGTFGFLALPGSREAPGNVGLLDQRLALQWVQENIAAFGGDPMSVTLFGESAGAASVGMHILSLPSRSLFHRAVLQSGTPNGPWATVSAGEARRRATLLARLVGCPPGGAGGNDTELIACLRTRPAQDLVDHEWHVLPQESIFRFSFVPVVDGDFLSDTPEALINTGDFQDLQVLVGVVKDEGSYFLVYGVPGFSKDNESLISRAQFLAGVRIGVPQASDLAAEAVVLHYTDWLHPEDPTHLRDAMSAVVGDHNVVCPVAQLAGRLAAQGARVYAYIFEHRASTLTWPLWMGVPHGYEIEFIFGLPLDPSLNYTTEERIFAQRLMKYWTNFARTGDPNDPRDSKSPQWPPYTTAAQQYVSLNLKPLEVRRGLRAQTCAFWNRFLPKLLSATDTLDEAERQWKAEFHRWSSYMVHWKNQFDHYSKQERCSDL
Description: A solubilized preparation of acetylcholinesterase was prepared from mouse whole brain (minus cerebellum). The brain was homogenized with (100 mg/ml) phosphate buffer; pH 8.0, centrifuged, the supernatant discarded, and the pellet mixed with a similar volume as above of buffer pH 8.0 plus 1% Triton; mixed, centrifuged and the supernatant which contained most of the solubilized enzyme, was used for the subsequent determinations of anticholinesterase activity.
The activity of the enzyme (rate of hydrolysis of substrate, acetylthiocholine) was measured using at least 4 different concentrations of substrate, and at least 3 different concentrations of each inhibitor. The enzyme was incubated with inhibitor for periods ranging for 2-180 mins. at 37° C., substrate was then added, and its rate of hydrolysis measured by the spectrophotometric method of Ellman et al. (1961).

[3] = in vivo; settings: for absorption from the gastro-intestinal tract compared with physostigmine: from oral versus s.c. LD50; for protection by atropine against lethality: atropine pretreatment; for selectivity ratio / LD50 at 3 h: mouse, in vivo
Description: Mice were given one of at least three different doses of each compound, orally or subcutaneously, a minimum of 10 mice allotted to each dose. The number of animals which died at each dose within 3 hours was determined.
This experiment was repeated after the animals had been pretreated with atropine sulphate, which blocks both peripheral and central muscarinic receptors.
What is important is the safety of the drugs and the presence and severity of side effects that may occur at therapeutic doses. A commonly-used measure of drug safety is the therapeutic index--or LD50 /ED50 [formula]
It is assumed that the therapeutic effect of these anticholinesterase agents results from an elevation of brain cholinergic activity. This in turn, should be related to the degree of inhibition of acetylcholinesterase. For the purpose of the computation of the denominator of the therapeutic ratio, there is used the dose of drug that inhibits the activity of acetylcholinesterase by 50%. […] The numerator is the dose found to kill 50% of the animals within […] of a subcutaneous injection.

[4] = system: respiratory depressant effects of morphine; format: in vivo; settings: rabbits, depending on drug and dose
Description: Different doses of the carbamate compounds were injected intravenously with morphine in rabbits Respiration rate, arterial blood gas tensions and pH were monitored continuously before and after drug administration for 4-5 hours. In another series of experiments the effect of the anticholinesterase drugs was assessed on the analgesic effect of opiates in rabbits after application of a nociceptive stimulus, i.e. electrical stimulation of the sciatic nerve.

[5] = parenteral administration, in words
[6] = incubation of enzyme with inhibitor, 37° C.
[7] = Degree of protection afforded by pretreatment with atropine, ratio of LD50 after pretreatment with atropine sulphate 5 mg/kg to LD50 of drug alone
[8] = Ratio whose head is drawing 10 (Table 3; oral LD50 compared with s.c. LD50), mice, oral versus s.c.
[9] = sc, Therapeutic ratio LD50/ED50 s.c., mice, ED50 = dose inhibiting brain acetylcholinesterase by 50%

| SMILES | duration of significant brain enzyme inhibition (>30%) ([1]; at ED50 dose) | Relative potency to physostigmine after oral administration [1] | % cholinesterase inhibition 3 hours after s.c. administration [1] [%] | Relative potency to physostigmine after subcut. (s.c.) administration [1] | duration of brain acetylcholinesterase inhibition compared with physostigmine or miotine [1, 5] | pIC50 [2] | Time of peak activity [2, 6] [min] | absorption from the gastro-intestinal tract compared with physostigmine [3] | protection by atropine against lethality ([3]; mice, in words) | selectivity ratio [3, 7] | selectivity ratio [3, 8] | LD50 at 3 h ([3]; sc) [µmol/kg] | selectivity ratio [3, 9] | relative in vivo activity compared to physostigmine versus in vitro data [1] | duration of significant antagonism of the respiratory depressant effects of morphine [4] [h] | also measured |
| --- | --- | --- | --- | --- | --- | --- | --- | --- | --- | --- | --- | --- | --- | --- | --- | --- |
| CCCN(C)C(=O)Oc1cccc(C(C)N(C)C)c1 (stereo not drawn) [RA4, N-methyl, N-propyl-3[1-(dimethylamino)ethyl]phenyl carbamate] | more than 3 hours | 29 | 25 | 13 | significantly longer duration | 5.77 | 60 | more efficiently absorbed from the gastro-intestinal tract than is physostigmine | considerably greater protection | 4.9 | 1.7 | 72 | 10 | – | – | bioavailability after oral administration compared with physostigmine ([1]; in words): better bioavailability after oral administration than physostigmine |
| CCCCNC(=O)Oc1cccc(C(C)N(C)C)c1 (stereo not drawn) [RA5, N-butyl-3-[1-(dimethylamino)ethyl]phenyl carbamate] | more than 3 hours | 29 | 30 | 36 | significantly longer duration | 7.12 | 120 | – | considerably greater protection | 5.8 | 5 | 19 | 7.6 | relatively more active in vivo compared to physostigmine than one would expect from the in vitro data | – | – |
| CCNC(=O)Oc1cccc(C(C)N(C)C)c1 (stereo not drawn) [RA6, N-ethyl-3[1-(dimethylamino)ethyl]phenyl carbamate] | more than 3 hours | 19 | 35 | 11 | significantly longer duration | 6.40 | 120 | more efficiently absorbed from the gastro-intestinal tract than is physostigmine | – | 2.6 | 2.1 | 96 | 11.9 | relatively more active in vivo compared to physostigmine than one would expect from the in vitro data | 3 to 5 | brain enzyme inhibition after 7 hours ([1]; at ED50 dose, 7 hours): 36%; bioavailability after oral administration compared with physostigmine ([1]; in words): better bioavailability after oral administration than physostigmine |
| CCN(C)C(=O)Oc1cccc(C(C)N(C)C)c1 (stereo not drawn) [RA7, N-ethyl, N-methyl-3[1-(dimethylamino)ethyl]phenyl carbamate] | – | – | – | – | – | – | – | more efficiently absorbed from the gastro-intestinal tract than is physostigmine | considerably greater protection | – | – | 46 | – | – | – | brain enzyme inhibition after 7 hours ([1]; mouse, in vivo): 36%; duration of brain acetylcholinesterase inhibition compared with physostigmine or miotine ([1]; mouse, in vivo): significantly longer duration; duration of significant brain enzyme inhibition (>30%) ([1]; mouse, in vivo): more than 3 hours; Time of peak activity [2]: 90 min |
| CCN(CC)C(=O)Oc1cccc(C(C)N(C)C)c1 (stereo not drawn) [RA8, N,N-diethyl-3-[1-(dimethylamino)ethyl]phenyl carbamate] | more than 3 hours | 5 | 32 | 2 | significantly longer duration | 4.46 | 30 | – | – | – | – | > 568 | > 10 | relatively more active in vivo compared to physostigmine than one would expect from the in vitro data | – | ED50 after oral administration compared with S.C. injection ([1]; oral versus s.c.): the same as that after S.C. injection |
| CC(c1cccc(OC(=O)N(C)C)c1)N(C)C (stereo not drawn) [RA10] | – | 92 | 7 | 81 | – | 7.57 | 120 | – | considerably greater protection | 5 | 9.7 | 14 | 12.7 | relatively more active in vivo compared to physostigmine than one would expect from the in vitro data | 3 to 5 | therapeutic ratio (safety margin) compared with physostigmine ([3]; mice, s.c., in words): significantly higher than of physostigmine |
| CC(c1cccc(OC(=O)N2CCOCC2)c1)N(C)C (stereo not drawn) [RA11] | – | – | – | – | – | < 4.70 | 30 | – | – | – | – | – | – | – | – | – |
| CC(c1cccc(OC(=O)NC2CCCCC2)c1)N(C)C (stereo not drawn) [RA12] | more than 3 hours | 17 | 37 | 13 | – | 7.03 | 120 | – | – | 3.8 | 3.6 | 42 | 5.8 | – | – | – |
| CC(C)NC(=O)Oc1cccc(C(C)N(C)C)c1 (stereo not drawn) [RA13] | – | 5 | – | 2 | – | 4.92 | 120 | more efficiently absorbed from the gastro-intestinal tract than is physostigmine | considerably greater protection | 4.5 | 1.1 | 65 | 1.6 | – | – | – |
| C=CCNC(=O)Oc1cccc(C(C)N(C)C)c1 (stereo not drawn) [RA14, N-allyl-3-[1-(dimethylamino)ethyl]phenyl carbamate] | more than 3 hours | 22 | 35 | 15 | significantly longer duration | 6.37 | 120 | – | considerably greater protection | 8 | 4.4 | 69 | 11.5 | relatively more active in vivo compared to physostigmine than one would expect from the in vitro data | 3 to 5 | selectivity ratio ([3]; decrease of acute toxicity (lethality) by the antidote atropine, mice, atropine): > 8 |
